# According to US20020119136A1, “Antimicrobial peroxidase compositions” (Novozymes A/S, priority 1996, published 2002):
# B1: rCIP: Coprinus cinereus, IFO 8371, recombinant peroxidase (rCIP) available from Novo Nordisk A/S (protein, UniProt P28314 21-363, looked up)
# Peroxidase: QGPGGGGSVTCPGGQSTSNSQCCVWFDVLDDLQTNFYQGSKCESPVRKILRIVFHDAIGFSPALTAAGQFGGGGADGSIIAHSNIELAFPANGGLTDTVEALRAVGINHGVSFGDLIQFATAVGMSNCPGSPRLEFLTGRSNSSQPSPPSLIPGPGNTVTAILDRMGDAGFSPDEVVDLLAAHSLASQEGLNSAIFRSPLDSTPQVFDTQFYIETLLKGTTQPGPSLGFAEELSPFPGEFRMRSDALLARDSRTACRWQSMTSSNEVMGQRYRAAMAKMSVLGFDRNALTDCSDVIPSAVSNNAAPVIPGGLTVDDIEVSCPSEPFPEIATASGPLPSLAPAP
# What was measured:
# P. fluorescens = conditions: rCIP 3 POXU/ml, enhancing agent 5 mM, 15 min, pH 6.0, 40 C; for bactericidal activity of rCIP with the enhancing agent: glucose oxidase/glucose or 5 mM H2O2, 10^4 cfu/ml
# Procedure: In order to avoid interference with substrate components, the experiment was carried out in a buffer instead of in a growth substrate.
# The bactericidal activity was determined by plate counting and by incubation in Malthus. The detection times measured by the Malthus instrument were converted to cfu/ml by a standard curve.
# Indirect Malthus measurements were used when enumerating total survival cells (Malthus Flexi M2060, Malthus Instrument Limited). 3 ml of growth medium was transferred to the outer chamber of the indirect Malthus cells, and 0.5 ml of sterile KOH (0.1 M) was transferred to the inner chamber. The cell suspensions were after enzyme treatment transferred to the outer chamber of the Malthus cell. As cells are growing in the outer chamber they produce CO2 which will dissolve in the KOH in the inner chamber and thereby change the conductance of the KOH. The amount of CO2 formed by the respiring cells surviving the enzyme treatment was used for estimating the number of viable cells. When the conductance change is measurable by the Malthus, a detection time (dt) will be recorded. The dt's were converted to colony counts by use of a calibration curve relating cfu/ml to dt (FIG. 1).
# [1] = tested on: Staphylococcus aureus ATCC 25923; test: Antibacterial activity of rCIP and KI against S. aureus (Malthus, 2^3 factorial design); assay type: cell-based; conditions: components present at rCIP 0.5 POXU/ml, H2O2 0.5 mM, KI 0.5 mM; 15 min, 40 C, pH 6.0; untreated 2.9*10^8
# Procedure: (§1) The antibacterial activity of rCIP was tested in phosphate buffer (pH 6.0) against Pseudomonas aeruginosa ATCC 10146 and Staphylococcus aureus ATCC 25923 with potassium iodide as electron donor, and hydrogen peroxide was added as electron acceptor. The cells (approximately 10^7 cfu/ml) were incubated with enzyme for 15 min at 40?C., and the experiment was carried out using a 2^3 factorial design reproduced two times. The bactericidal activity was determined by incubation in Malthus.
# [2] = tested on: Pseudomonas aeruginosa ATCC 10146; test: Antibacterial activity of rCIP and KI against P. aeruginosa (Malthus, 2^3 factorial design); assay type: cell-based; conditions: components present at rCIP 0.5 POXU/ml, H2O2 0.5 mM, KI 0.5 mM; 15 min, 40 C, pH 6.0; approx 10^7 cfu/ml; untreated 1.7*10^7
# Procedure: as §1
Molecule,bactericidal activity of rCIP with the enhancing agent (P. fluorescens),survivors [1],survivors [2],"bactericidal activity (P. fluorescens; H2O2 source, by plate counts and Malthus) [%]"
"O=C(O)CCN1c2ccccc2Sc2ccccc21 [PPT, 10-phenothiazine propionic acid]",slight bactericidal activity,–,–,–
"OO [H2O2, hydrogen peroxide]",–,1.3*10^8 cfu/ml,1.2*10^7 cfu/ml,–
"N#C[S-].[Na+] [NaSCN, sodium thiocyanate]",statistical significant bactericidal activity,–,–,–
"[I-].[K+] [KI, potassium iodide]",statistical significant bactericidal activity,2.0*10^8 cfu/ml,2.1*10^7 cfu/ml,100
B1,–,1.6*10^8 cfu/ml,2.6*10^7 cfu/ml,–
